Test results from patent US20230140972A1, “GLYCEROL GLUCOSIDE-BASED COMPOUND AND COMPOSITION COMPRISING SAME FOR ULTRAVIOLET LIGHT SHIELD OR ANTI-INFLAMMATION” (ATHENA CO., LTD., priority 2020, published 2023).
Where “and” joins values, the source holds several entries; their conditions need not be identical. Identical values can stand only once.

Tested on: RAW264.7 cells
Test: Cell viability measurement using MTT assay
Assay type: cell-based, mouse
Settings: vs untreated group
Description: In order to evaluate a cell viability of the glycerol glucoside-based compound sample (EPS-S), an MTT assay was performed.
Specifically, subcultured RAW264.7 cells and HDF cells were aliquoted into a 96-well plate at 1×10^5, respectively, and cultured for 24 hours at 37° C. in an incubator containing 5% carbon dioxide, and then, a culture media was replaced with a serum-free media. Then, each sample was treated onto each cell by concentration. After culturing for 24 hours, an MTT solution was put into each well, reacted for 2 hours under light blocking, a supernatant was removed, a formed formazan was completely dissolved in DMSO, and an absorbance was measured at 540 nm with a microplate reader. In such a case, SDS was used as a positive control group. The test result value was calculated as in Equation 1 below and expressed as the cell viability compared to an untreated group, and was expressed as a mean±standard deviation.

Structure (SMILES): CCCCCCCCCCCCOS(=O)(=O)[O-].[Na+] [SDS]
- cell viability (24 h, 1 ppm): 99.95% and 99.95 ± 0.72%
- cell viability (24 h, 10 ppm): 96.29% and 96.29 ± 0.16%
- cell viability (24 h, 100 ppm): 7.75% and 7.75 ± 0.14%
- cell viability (24 h, 1,000 ppm): 6.67% and 6.67 ± 0.16%
